Molecular target: T1, Neuropeptide Y receptor type 1 (Homo sapiens, UniProt P25929)
T1 sequence (P25929 whole entry): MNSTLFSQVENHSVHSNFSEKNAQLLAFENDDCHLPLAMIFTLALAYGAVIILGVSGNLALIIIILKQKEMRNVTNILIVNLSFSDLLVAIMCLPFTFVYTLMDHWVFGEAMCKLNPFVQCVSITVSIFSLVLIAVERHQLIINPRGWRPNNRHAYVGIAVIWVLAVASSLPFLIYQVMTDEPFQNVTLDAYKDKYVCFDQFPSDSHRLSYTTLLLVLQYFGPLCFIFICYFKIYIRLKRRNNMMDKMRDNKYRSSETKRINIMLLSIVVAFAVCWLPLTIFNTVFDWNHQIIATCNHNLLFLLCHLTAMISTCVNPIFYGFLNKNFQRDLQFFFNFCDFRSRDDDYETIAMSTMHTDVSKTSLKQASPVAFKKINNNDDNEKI
Experiment: Inhibition of binding of [125I]PYY to membranes of SK-N-MC cells expressing the human Y1 receptors

Structure (SMILES)	IC50
COC(=O)C1=C(C)N=C(C)C(C(=O)OC)C1c1cccc(NC(=O)NCCNC2CCN(c3ccccc3)CC2)c1 (stereo unspecified) [2,6-Dimethyl-4-(3-{3-[2-(1-phenyl-piperidin-4-ylamino)-ethyl]-ureido}-phenyl)-1,4-dihydro-pyridine-3,5-dicarboxylic acid dimethyl ester]	2 nM
COC(=O)C1=C(C)N=C(C)C(C(=O)OC)C1c1cccc(NC(=O)NCCNC2CCN(c3cccc(Cl)c3)CC2)c1 (stereo unspecified) [4-[3-(3-{2-[1-(3-Chloro-phenyl)-piperidin-4-ylamino]-ethyl}-ureido)-phenyl]-2,6-dimethyl-1,4-dihydro-pyridine-3,5-dicarboxylic acid dimethyl ester]	8 nM
COC(=O)C1=C(C)N=C(C)C(C(=O)OC)C1c1cccc(NC(=NC#N)NCCNC2CCN(c3cccc(Cl)c3)CC2)c1 (stereo unspecified) [N-arylpiperazine derivative]	8 nM
COC(=O)C1=C(C)N=C(C)C(C(=O)OC)C1c1cccc(NC(=NC#N)NCCNC2CCN(c3ccccc3C#N)CC2)c1 (stereo unspecified) [N-arylpiperazine derivative]	3 nM
COC(=O)C1=C(C)N=C(C)C(C(=O)OC)C1c1cccc(NC(=NC#N)NCCNC2CCN(c3ccccc3C)CC2)c1 (stereo unspecified) [N-arylpiperazine derivative]	4 nM
COC(=O)C1=C(C)N=C(C)C(C(=O)OC)C1c1cccc(NC(=NC#N)NCCNC2CCN(c3ccccc3SC)CC2)c1 (stereo unspecified) [N-arylpiperazine derivative]	3 nM

Results, then the compound that gave them:

IC50	Structure (SMILES)
4 nM	COC(=O)C1=C(C)N=C(C)C(C(=O)OC)C1c1cccc(NC(=O)NCCNC2CCN(c3ccccc3C)CC2)c1 (stereo unspecified) [2,6-Dimethyl-4-(3-{3-[2-(1-o-tolyl-piperidin-4-ylamino)-ethyl]-ureido}-phenyl)-1,4-dihydro-pyridine-3,5-dicarboxylic acid dimethyl ester]
5 nM	COC(=O)C1=C(C)N=C(C)C(C(=O)OC)C1c1cccc(NC(=O)NCCNC2CCN(c3ccccc3SC)CC2)c1 (stereo unspecified) [2,6-Dimethyl-4-[3-(3-{2-[1-(2-methylsulfanyl-phenyl)-piperidin-4-ylamino]-ethyl}-ureido)-phenyl]-1,4-dihydro-pyridine-3,5-dicarboxylic acid dimethyl ester]
2 nM	COC(=O)C1=C(C)NC(C)=C(C(=O)OC)C1c1cccc(NC(=O)NCCNC2CCN(c3ccccc3[N+](=O)[O-])CC2)c1 [2,6-Dimethyl-4-[3-(3-{2-[1-(2-nitro-phenyl)-piperidin-4-ylamino]-ethyl}-ureido)-phenyl]-1,4-dihydro-pyridine-3,5-dicarboxylic acid dimethyl ester]
3 nM	COC(=O)C1=C(C)N=C(C)C(C(=O)OC)C1c1cccc(NC(=O)NCCNC2CCN(c3ccccc3C#N)CC2)c1 (stereo unspecified) [4-[3-(3-{2-[1-(2-Cyano-phenyl)-piperidin-4-ylamino]-ethyl}-ureido)-phenyl]-2,6-dimethyl-1,4-dihydro-pyridine-3,5-dicarboxylic acid dimethyl ester]
4 nM	COC(=O)C1=C(C)NC(C)=C(C(=O)OC)C1c1cccc(NC(=NC#N)NCCNC2CCN(c3ccccc3[N+](=O)[O-])CC2)c1 [N-arylpiperazine derivative]
